Measured values: ChEMBL document CHEMBL1201862, “PubChem BioAssay data set” (2004)
Activity calls are given as the source filed them. Unless noted, the rule behind the calls is not given here.

Assays:
Format in all cases: functional
[1] = target: Mitogen-activated protein kinase 10 (Homo sapiens, UniProt P53779); experiment: Navigating the Kinome. Panel member name: MAPK10
[2] = target: Mitogen-activated protein kinase kinase kinase 10 (Homo sapiens, UniProt Q02779); experiment: Navigating the Kinome. Panel member name: MAP3K10
Sequence of Mitogen-activated protein kinase kinase kinase 10 (Q02779 whole entry): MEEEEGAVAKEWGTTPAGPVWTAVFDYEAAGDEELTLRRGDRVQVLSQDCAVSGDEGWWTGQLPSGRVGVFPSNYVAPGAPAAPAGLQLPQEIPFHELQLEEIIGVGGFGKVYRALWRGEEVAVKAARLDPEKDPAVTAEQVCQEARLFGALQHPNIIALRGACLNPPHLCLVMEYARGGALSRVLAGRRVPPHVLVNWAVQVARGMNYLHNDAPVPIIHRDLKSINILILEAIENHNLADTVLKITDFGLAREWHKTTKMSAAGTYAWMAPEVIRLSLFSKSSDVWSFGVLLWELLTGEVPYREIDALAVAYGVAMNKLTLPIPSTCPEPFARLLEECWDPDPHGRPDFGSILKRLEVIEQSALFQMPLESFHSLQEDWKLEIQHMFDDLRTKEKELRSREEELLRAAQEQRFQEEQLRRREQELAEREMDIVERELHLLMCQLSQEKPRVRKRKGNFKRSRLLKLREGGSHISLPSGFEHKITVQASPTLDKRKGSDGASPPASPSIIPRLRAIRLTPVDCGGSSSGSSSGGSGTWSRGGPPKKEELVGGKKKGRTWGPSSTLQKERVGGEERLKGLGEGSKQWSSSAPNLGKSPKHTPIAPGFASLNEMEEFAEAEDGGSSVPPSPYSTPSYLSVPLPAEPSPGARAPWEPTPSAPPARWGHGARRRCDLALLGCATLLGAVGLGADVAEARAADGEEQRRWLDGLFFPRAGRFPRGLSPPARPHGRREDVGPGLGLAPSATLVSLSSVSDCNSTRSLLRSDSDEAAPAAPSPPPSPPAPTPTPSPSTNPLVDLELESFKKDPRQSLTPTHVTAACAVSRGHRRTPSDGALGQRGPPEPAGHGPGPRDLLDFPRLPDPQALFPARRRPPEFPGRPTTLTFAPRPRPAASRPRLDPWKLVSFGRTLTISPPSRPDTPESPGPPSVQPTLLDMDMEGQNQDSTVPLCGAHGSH

[3] = target: Calcium/calmodulin-dependent protein kinase kinase 2 (Homo sapiens, UniProt Q96RR4); experiment: Navigating the Kinome. Panel member name: CAMKK2
Sequence of Calcium/calmodulin-dependent protein kinase kinase 2 (Q96RR4 whole entry): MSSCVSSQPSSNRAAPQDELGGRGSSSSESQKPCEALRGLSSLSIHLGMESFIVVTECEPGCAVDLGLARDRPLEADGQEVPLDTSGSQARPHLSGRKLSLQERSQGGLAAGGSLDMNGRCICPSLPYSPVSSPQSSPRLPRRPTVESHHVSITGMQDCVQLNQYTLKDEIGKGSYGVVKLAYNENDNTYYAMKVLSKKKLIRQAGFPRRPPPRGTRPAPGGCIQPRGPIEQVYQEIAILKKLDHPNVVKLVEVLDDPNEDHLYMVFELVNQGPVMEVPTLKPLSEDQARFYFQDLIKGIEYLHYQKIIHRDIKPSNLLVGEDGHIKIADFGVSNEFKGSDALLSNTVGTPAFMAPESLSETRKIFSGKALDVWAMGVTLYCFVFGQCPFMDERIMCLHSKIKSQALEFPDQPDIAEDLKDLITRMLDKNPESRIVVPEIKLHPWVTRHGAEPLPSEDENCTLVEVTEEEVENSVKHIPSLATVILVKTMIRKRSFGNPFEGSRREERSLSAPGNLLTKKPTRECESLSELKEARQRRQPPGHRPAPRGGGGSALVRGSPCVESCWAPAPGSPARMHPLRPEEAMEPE

[4] = target: Mast/stem cell growth factor receptor Kit (Homo sapiens, UniProt P10721);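 also: KIT entry within a kinase panel assay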
Sequence of Mast/stem cell growth factor receptor Kit (P10721 whole entry): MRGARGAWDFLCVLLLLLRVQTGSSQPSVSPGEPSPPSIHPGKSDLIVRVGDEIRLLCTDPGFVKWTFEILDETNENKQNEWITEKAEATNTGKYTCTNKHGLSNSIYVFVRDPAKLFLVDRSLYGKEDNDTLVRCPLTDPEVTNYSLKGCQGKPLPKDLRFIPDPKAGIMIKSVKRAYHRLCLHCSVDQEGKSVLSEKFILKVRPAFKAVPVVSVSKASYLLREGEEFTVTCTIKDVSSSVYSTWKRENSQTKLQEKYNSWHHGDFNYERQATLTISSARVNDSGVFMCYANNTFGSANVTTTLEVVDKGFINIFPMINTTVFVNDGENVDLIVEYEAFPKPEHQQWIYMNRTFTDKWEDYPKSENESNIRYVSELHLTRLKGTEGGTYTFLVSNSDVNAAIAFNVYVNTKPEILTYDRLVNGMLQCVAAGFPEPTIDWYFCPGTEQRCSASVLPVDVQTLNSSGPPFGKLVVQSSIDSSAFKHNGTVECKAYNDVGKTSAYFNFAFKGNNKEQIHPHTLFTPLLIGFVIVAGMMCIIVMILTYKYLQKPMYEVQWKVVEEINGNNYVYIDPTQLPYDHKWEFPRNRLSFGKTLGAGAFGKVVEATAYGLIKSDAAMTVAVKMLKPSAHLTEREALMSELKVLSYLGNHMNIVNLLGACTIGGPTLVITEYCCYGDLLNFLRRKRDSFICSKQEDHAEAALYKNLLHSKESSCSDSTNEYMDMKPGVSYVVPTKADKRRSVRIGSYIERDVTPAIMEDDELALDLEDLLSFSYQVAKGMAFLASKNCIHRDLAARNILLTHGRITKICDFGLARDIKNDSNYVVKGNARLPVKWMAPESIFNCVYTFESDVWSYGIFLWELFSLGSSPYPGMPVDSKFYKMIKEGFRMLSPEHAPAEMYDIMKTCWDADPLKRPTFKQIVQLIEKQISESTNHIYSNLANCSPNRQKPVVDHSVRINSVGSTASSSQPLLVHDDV

[5] = target: T1, Sentrin-specific protease 8 (Homo sapiens, UniProt Q96LD8)
T1 sequence (Q96LD8 whole entry): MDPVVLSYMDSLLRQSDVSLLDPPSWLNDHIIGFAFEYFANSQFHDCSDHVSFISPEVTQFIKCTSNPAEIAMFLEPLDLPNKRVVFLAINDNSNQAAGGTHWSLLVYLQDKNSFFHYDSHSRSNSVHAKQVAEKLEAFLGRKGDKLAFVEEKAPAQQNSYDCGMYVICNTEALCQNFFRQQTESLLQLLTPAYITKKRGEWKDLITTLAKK

[6] = target: T2, Heat shock factor protein 1 (Mus musculus, UniProt P38532); experiment: enhancement of HSF1-driven luciferase signal – cell-based, NIH3T3, luminescence, dose retest, confirmation (AID 435004);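 also: stress induced by proteasome inhibitor MG132 added 30 min after compound; luciferase reporter driven by HSF1 response element in NIH3T3 cells; actives raise luminescence as potentiators of the MG132 stress response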
T2 sequence (P38532 whole entry): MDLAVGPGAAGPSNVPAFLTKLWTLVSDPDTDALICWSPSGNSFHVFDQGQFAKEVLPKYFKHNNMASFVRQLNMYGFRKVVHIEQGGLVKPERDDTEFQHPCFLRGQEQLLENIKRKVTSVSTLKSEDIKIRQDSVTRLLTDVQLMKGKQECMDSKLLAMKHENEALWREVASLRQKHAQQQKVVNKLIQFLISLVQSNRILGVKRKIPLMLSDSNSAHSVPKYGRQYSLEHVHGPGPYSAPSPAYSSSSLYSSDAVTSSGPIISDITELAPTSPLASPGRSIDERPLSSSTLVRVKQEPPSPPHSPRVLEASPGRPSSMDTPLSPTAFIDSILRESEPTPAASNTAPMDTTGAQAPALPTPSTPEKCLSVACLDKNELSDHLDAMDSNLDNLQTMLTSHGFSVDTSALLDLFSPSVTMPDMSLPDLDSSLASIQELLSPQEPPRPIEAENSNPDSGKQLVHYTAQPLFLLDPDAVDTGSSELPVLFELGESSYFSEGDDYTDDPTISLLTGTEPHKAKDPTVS

Sequence of Mitogen-activated protein kinase 10 (P53779 whole entry): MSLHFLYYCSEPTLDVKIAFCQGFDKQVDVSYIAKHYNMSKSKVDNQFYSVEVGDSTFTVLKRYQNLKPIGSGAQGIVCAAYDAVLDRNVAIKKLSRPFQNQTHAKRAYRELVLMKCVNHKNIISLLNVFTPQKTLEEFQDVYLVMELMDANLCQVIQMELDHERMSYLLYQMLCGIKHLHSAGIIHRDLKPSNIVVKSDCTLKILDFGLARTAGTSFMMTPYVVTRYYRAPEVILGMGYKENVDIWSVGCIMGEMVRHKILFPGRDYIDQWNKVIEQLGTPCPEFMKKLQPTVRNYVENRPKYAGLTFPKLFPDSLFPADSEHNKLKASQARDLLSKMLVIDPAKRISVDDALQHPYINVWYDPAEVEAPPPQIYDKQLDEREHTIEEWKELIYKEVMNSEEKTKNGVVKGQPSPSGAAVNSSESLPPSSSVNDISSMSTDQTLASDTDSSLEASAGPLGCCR

SMILES | Ki [1] | Ki [2] | Ki [3] | Ki [4] | IC50 [5] | EC50 [6]
Oc1ccc(-c2nc(-c3ccncc3)c(-c3ccc(F)cc3)[nH]2)cc1 [SB-202190] | 0.0631 µM (active) | > 3.16 µM (inactive) | > 2.51 µM (inactive) | > 6.31 µM (inactive) | – | –
c1ccc2nc3cc4[nH]cnc4cc3nc2c1 | – | – | – | – | 12.5 µM (active) | 15.5 µM (active)
